Test results published in US20180036289A1 (Gilead Sciences, Inc., priority 2016, published 2018).

Legend:
Assay in all cases: Cell proliferation assay (ATPlite), drug with vs without cobicistat
Type in all cases: cell-based
OVCAR-3 = OVCAR-3 cell line; 120 hours incubation
How it was run: (§1)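 Cells seeded at 200-3200/well in ATCC-recommended medium, grown 24 h, then exposed to 9-point 3.16-fold dilutions (3.16×10^−5 to 3.16×10^−9 M, duplicate, 0.4% DMSO final) for 120 h at 37 °C, 5% CO2. ATPlite luminescence gave %-growth versus untreated; IC50 from 4-parameter logistic fit.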

Hs 578T = Hs 578T cell line; 120 hours incubation
How it was run: as §1

MeWo = MeWo cell line; 120 hours incubation
How it was run: as §1

SNU-C2B = SNU-C2B cell line; 120 hours incubation
How it was run: as §1

A375 = A375 cell line; 120 hours incubation
How it was run: as §1

T98G = T98G cell line; 120 hours incubation
How it was run: as §1

A388 = A388 cell line; 120 hours incubation
How it was run: as §1

ACHN = ACHN cell line; 120 hours incubation
How it was run: as §1

A-204 = A-204 cell line; 120 hours incubation
How it was run: as §1

U-87 MG = U-87 MG cell line; 120 hours incubation
How it was run: as §1

COLO 205 = COLO 205 cell line; 120 hours incubation
How it was run: as §1

786-O = 786-O cell line; 120 hours incubation
How it was run: as §1

A-172 = A-172 cell line; 120 hours incubation
How it was run: as §1

VA-ES-BJ = VA-ES-BJ cell line; 120 hours incubation
How it was run: as §1

SW48 = SW48 cell line; 120 hours incubation
How it was run: as §1

LNCaP FGC = LNCaP FGC cell line; 120 hours incubation
How it was run: as §1

SW480 = SW480 cell line; 120 hours incubation
How it was run: as §1

HCT-15 = HCT-15 cell line; 120 hours incubation
How it was run: as §1

MG-63 = MG-63 cell line; 120 hours incubation
How it was run: as §1

DoTc2 4510 = DoTc2 4510 cell line; 120 hours incubation
How it was run: as §1

FaDu = FaDu cell line; 120 hours incubation
How it was run: as §1

C-33 A = C-33 A cell line; 120 hours incubation
How it was run: as §1

PA-1 = PA-1 cell line; 120 hours incubation
How it was run: as §1

Daoy = Daoy cell line; 120 hours incubation
How it was run: as §1

MIA PaCa-2 = MIA PaCa-2 cell line; 120 hours incubation
How it was run: as §1

A-427 = A-427 cell line; 120 hours incubation
How it was run: as §1

SK-N-FI = SK-N-FI cell line; 120 hours incubation
How it was run: as §1

A-498 = A-498 cell line; 120 hours incubation
How it was run: as §1

U-2 OS = U-2 OS cell line; 120 hours incubation
How it was run: as §1

SUP-T1 = SUP-T1 cell line; 120 hours incubation
How it was run: as §1

Compound | Fold change in IC50 (IC50 [Drug + Cobicistat]/IC50 [Drug]) (OVCAR-3) | Fold change in IC50 (IC50 [Drug + Cobicistat]/IC50 [Drug]) (Hs 578T) | Fold change in IC50 (IC50 [Drug + Cobicistat]/IC50 [Drug]) (MeWo) | Fold change in IC50 (IC50 [Drug + Cobicistat]/IC50 [Drug]) (SNU-C2B) | Fold change in IC50 (IC50 [Drug + Cobicistat]/IC50 [Drug]) (A375) | Fold change in IC50 (IC50 [Drug + Cobicistat]/IC50 [Drug]) (T98G) | Fold change in IC50 (IC50 [Drug + Cobicistat]/IC50 [Drug]) (A388) | Fold change in IC50 (IC50 [Drug + Cobicistat]/IC50 [Drug]) (ACHN) | Fold change in IC50 (IC50 [Drug + Cobicistat]/IC50 [Drug]) (A-204) | Fold change in IC50 (IC50 [Drug + Cobicistat]/IC50 [Drug]) (U-87 MG) | Fold change in IC50 (IC50 [Drug + Cobicistat]/IC50 [Drug]) (COLO 205) | Fold change in IC50 (IC50 [Drug + Cobicistat]/IC50 [Drug]) (786-O) | Fold change in IC50 (IC50 [Drug + Cobicistat]/IC50 [Drug]) (A-172) | Fold change in IC50 (IC50 [Drug + Cobicistat]/IC50 [Drug]) (VA-ES-BJ) | Fold change in IC50 (IC50 [Drug + Cobicistat]/IC50 [Drug]) (SW48) | Fold change in IC50 (IC50 [Drug + Cobicistat]/IC50 [Drug]) (LNCaP FGC) | Fold change in IC50 (IC50 [Drug + Cobicistat]/IC50 [Drug]) (SW480) | Fold change in IC50 (IC50 [Drug + Cobicistat]/IC50 [Drug]) (HCT-15) | Fold change in IC50 (IC50 [Drug + Cobicistat]/IC50 [Drug]) (MG-63) | Fold change in IC50 (IC50 [Drug + Cobicistat]/IC50 [Drug]) (DoTc2 4510) | further results
COc1cccc2c1C(=O)c1c(O)c3c(c(O)c1C2=O)C[C@@](O)(C(=O)CO)C[C@@H]3O[C@H]1C[C@H](N)[C@H](O)[C@H](C)O1 [doxorubicin] | 2.5 fold | 1.7 fold | 2.1 fold | 1.2 fold | 2.2 fold | 1.4 fold | 1.7 fold | 2.2 fold | 2.5 fold | 0.7 fold | 2.3 fold | 2.3 fold | 2.5 fold | 2.8 fold | 1.8 fold | 1.8 fold | 2.5 fold | 2.0 fold | 2.4 fold | 1.7 fold | Fold change in IC50 (IC50 [Drug + Cobicistat]/IC50 [Drug]) (FaDu): 1.7 fold; Fold change in IC50 (IC50 [Drug + Cobicistat]/IC50 [Drug]) (C-33 A): 1.9 fold; Fold change in IC50 (IC50 [Drug + Cobicistat]/IC50 [Drug]) (PA-1): 3.0 fold; Fold change in IC50 (IC50 [Drug + Cobicistat]/IC50 [Drug]) (Daoy): 1.6 fold; Fold change in IC50 (IC50 [Drug + Cobicistat]/IC50 [Drug]) (MIA PaCa-2): 2.2 fold; Fold change in IC50 (IC50 [Drug + Cobicistat]/IC50 [Drug]) (A-427): 1.5 fold; Fold change in IC50 (IC50 [Drug + Cobicistat]/IC50 [Drug]) (SK-N-FI): 2.0 fold; Fold change in IC50 (IC50 [Drug + Cobicistat]/IC50 [Drug]) (A-498): 1.2 fold; Fold change in IC50 (IC50 [Drug + Cobicistat]/IC50 [Drug]) (U-2 OS): 3.0 fold; Fold change in IC50 (IC50 [Drug + Cobicistat]/IC50 [Drug]) (SUP-T1): 2.0 fold
CC(=O)O[C@H]1C(=O)[C@@]2(C)[C@H]([C@H](OC(=O)c3ccccc3)[C@]3(O)C[C@H](OC(=O)[C@H](O)[C@@H](NC(=O)c4ccccc4)c4ccccc4)C(C)=C1C3(C)C)[C@]1(OC(C)=O)CO[C@@H]1C[C@@H]2O [paclitaxel] | 1.7 fold | 2.6 fold | 2.0 fold | 3.0 fold | 2.3 fold | 5.2 fold | 2.7 fold | 2.5 fold | 3.6 fold | 2.2 fold | 3.0 fold | 3.0 fold | 1.7 fold | 2.8 fold | 1.4 fold | 2.5 fold | 1.9 fold | 2.4 fold | 2.4 fold | 3.4 fold | Fold change in IC50 (IC50 [Drug + Cobicistat]/IC50 [Drug]) (FaDu): 1.3 fold; Fold change in IC50 (IC50 [Drug + Cobicistat]/IC50 [Drug]) (C-33 A): 1.3 fold; Fold change in IC50 (IC50 [Drug + Cobicistat]/IC50 [Drug]) (PA-1): 3.9 fold; Fold change in IC50 (IC50 [Drug + Cobicistat]/IC50 [Drug]) (Daoy): 3.4 fold; Fold change in IC50 (IC50 [Drug + Cobicistat]/IC50 [Drug]) (MIA PaCa-2): 3.0 fold; Fold change in IC50 (IC50 [Drug + Cobicistat]/IC50 [Drug]) (A-427): 1.2 fold; Fold change in IC50 (IC50 [Drug + Cobicistat]/IC50 [Drug]) (SK-N-FI): 2.5 fold; Fold change in IC50 (IC50 [Drug + Cobicistat]/IC50 [Drug]) (A-498): 2.8 fold; Fold change in IC50 (IC50 [Drug + Cobicistat]/IC50 [Drug]) (U-2 OS): 3.2 fold; Fold change in IC50 (IC50 [Drug + Cobicistat]/IC50 [Drug]) (SUP-T1): 3.5 fold
CC[C@]1(O)C[C@@H]2CN(CCc3c([nH]c4ccccc34)[C@@](C(=O)OC)(c3cc4c(cc3OC)N(C)[C@H]3[C@@](O)(C(=O)OC)[C@H](OC(C)=O)[C@]5(CC)C=CCN6CC[C@]43[C@@H]65)C2)C1 [vinblastine] | 2.6 fold | 3.7 fold | 3.2 fold | 4.5 fold | 3.4 fold | 4.9 fold | 4.7 fold | 3.8 fold | 4.0 fold | 2.6 fold | 4.9 fold | 2.5 fold | 3.0 fold | 4.3 fold | 2.5 fold | 4.0 fold | 3.3 fold | 2.3 fold | 2.8 fold | 5.0 fold | Fold change in IC50 (IC50 [Drug + Cobicistat]/IC50 [Drug]) (FaDu): 2.2 fold; Fold change in IC50 (IC50 [Drug + Cobicistat]/IC50 [Drug]) (C-33 A): 1.9 fold; Fold change in IC50 (IC50 [Drug + Cobicistat]/IC50 [Drug]) (PA-1): 6.3 fold; Fold change in IC50 (IC50 [Drug + Cobicistat]/IC50 [Drug]) (Daoy): 5.7 fold; Fold change in IC50 (IC50 [Drug + Cobicistat]/IC50 [Drug]) (MIA PaCa-2): 3.7 fold; Fold change in IC50 (IC50 [Drug + Cobicistat]/IC50 [Drug]) (A-427): 2.7 fold; Fold change in IC50 (IC50 [Drug + Cobicistat]/IC50 [Drug]) (SK-N-FI): 4.5 fold; Fold change in IC50 (IC50 [Drug + Cobicistat]/IC50 [Drug]) (A-498): 3.8 fold; Fold change in IC50 (IC50 [Drug + Cobicistat]/IC50 [Drug]) (U-2 OS): 4.4 fold; Fold change in IC50 (IC50 [Drug + Cobicistat]/IC50 [Drug]) (SUP-T1): 3.0 fold
